Reference: ChEMBL document CHEMBL1128629, “Mechanism-based inactivation of porphobilinogen synthase: Substitution of ketone functionality in the substrate with a thioester” (Bioorg Med Chem Lett, 1995)

Key:
Details in all cases: Escherichia coli
[1] = biological target: T1, Delta-aminolevulinic acid dehydratase (Homo sapiens) (UniProt P13716); experiment: Inhibitory activity against porphobilinogen synthase in presence of 5 mM for 30 min; No loss in activity
T1 sequence (whole entry): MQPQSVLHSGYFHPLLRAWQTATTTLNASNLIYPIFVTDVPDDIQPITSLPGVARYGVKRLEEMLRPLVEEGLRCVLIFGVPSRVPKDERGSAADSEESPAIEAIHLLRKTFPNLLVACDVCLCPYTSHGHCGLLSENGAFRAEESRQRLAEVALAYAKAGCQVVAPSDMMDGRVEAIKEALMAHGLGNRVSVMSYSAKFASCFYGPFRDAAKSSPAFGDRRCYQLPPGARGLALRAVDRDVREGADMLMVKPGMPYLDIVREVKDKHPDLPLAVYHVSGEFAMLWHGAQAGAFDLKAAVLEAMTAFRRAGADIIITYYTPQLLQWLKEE

[2] = biological target: T1, Delta-aminolevulinic acid dehydratase (Homo sapiens); experiment: Retention of porphobilinogen synthase activity in presence of 0.3 uM of the compound
[3] = biological target: T1, Delta-aminolevulinic acid dehydratase (Homo sapiens); experiment: Inhibitory activity against porphobilinogen synthase in presence of 150 uM over 30 min

## NCC(=O)OCC(=O)O
[1]
  Loss of activity: No loss in activity

## NCC(=O)CCC(=O)O
[2]
  Retention: 80%

## NCC(=O)SCC(=O)O
[3]
  Loss of activity: 80%
